Among the test systems are UACC-257 melanoma; MDA-MB-435; A498 renal; PC-3 prostate; SF-295 CNS; KM20L2 colon.
Experiment in all cases: NCI anticancer screen, dose series, 48 h

The structures appear in SMILES notation.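 Interpolation was linear, between the two tested concentrations surrounding the appropriate level; five concentrations were tested over 48 hours in 96-well plates. Definition used: TGI = concentration required for complete inhibition of growth.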

`O=Nn1c2ccccc2c2cc([N+](=O)[O-])ccc21`: the TGI in the assay on UACC-257 melanoma was determined as 56.5 µM; in the assay on MDA-MB-435 it was 32.8 µM; in the assay on A498 renal, 26.9 µM; with PC-3 prostate, 35 µM; in the assay with SF-295 CNS, 28.5 µM.
`CC(C)OP(=O)(OC(C)C)C1=NN(c2ccc([N+](=O)[O-])cc2)C(P(=O)(OC(C)C)OC(C)C)=NN1c1ccc([N+](=O)[O-])cc1` came in with a TGI in the assay on KM20L2 colon of more than 100 µM.

The values above are taken from PubChem BioAssay (NCI).
